According to ChEMBL document CHEMBL6092184, “Talauromides A-G, Nitrogen-Containing Heptacyclic Oligophenalenone Dimers from the Soil Fungus Talaromyces stipitatus BMC-16” (2024):
Active and inactive are the calls of the source. The rule behind the calls is not given here.

Experiments:
[1] = In-vivo inhibition of BIO-induced Wnt/beta-catenin signaling pathway in zebrafish embryo assessed as reversal of eyeless phenotype to small and normal like eyes at 20 uM measured at 48 hrs post fertilization; assay type: functional; conditions: Danio rerio
HEK293T = assay: Inhibition of Wnt/beta-catenin signaling pathway in HEK293T cells assessed as downregulation of BIO-induced nonphosphorylated beta-catenin level at 20 uM incubated for 12 hrs by immunoblotting analysis; assay type: cell-based; conditions: Homo sapiens

| Structure (SMILES) | inhibition in vivo at 20 µM [1] [%] | inhibition (HEK293T) |
| --- | --- | --- |
| CC(=O)O[C@H]1[C@@H]2C(=O)c3c(C)cc(O)c4c3[C@@]1(COC4=O)c1c(O)c3c4c(c(O)cc(C)c4c12)C(=O)OC3 | 100 | Active |
| CC(=O)O[C@H]1[C@@H]2C(=O)c3c(C)cc(O)c4c3[C@@]1(COC4=O)c1c(O)c3c4c(c(O)cc(C)c4c12)C(=O)O3 | 80 | Active |
| Cc1cc(O)c2c3c1C(=O)[C@@H]1C4=C(C(=O)c5cn(CCCC(=O)O)c(=O)c6c(O)cc(C)c4c56)[C@@]3(COC2=O)[C@H]1O | 96.6 | Active |
